Measurements from patent US12233140B2, “Hyperbranched polyglycerol-coated particles and methods of making and using thereof” (priority 2014, dated 2025).

Experiments:
[1] = Retention of IR-780 loaded NPs in the peritoneal cavity after IP administration (live imaging); settings: free dye control
Protocol: Six BALB/c nude mice were divided into 2 groups, 3 mice per group. […] Each mouse received 100 μL NP suspensions. The fluorescence was monitored with live imaging (Xenogen Corp., Alameda, CA) over time. The quantification of fluorescence retained in intraperitoneal cavity over time was determined.
Each mouse received 100 μL of the nanoparticle suspension at 10 mg/mL. The fluorescence was monitored with live imaging (Xenogen, Alameda, CA) over time.

[2] = tested on: uterine papillary serous carcinoma (UPSC) cells; assay: In vitro cytotoxicity on UPSC cells, 72 h (Cell Titer Blue); format: cell-based; settings: 3 days
Protocol: UPSC cells (180 μL) were plated in each well of a 96 well plate at a density of 2,000/well and left in a 37° C. incubator overnight. […] The cells were incubated for 72 h and cell viability was quantified with Cell Titer Blue.

[3] = tested on: i.p. USC tumors (USC-ARK-2 xenografts); assay: Survival and body weight of nude mice bearing intraperitoneal USC tumors, IP treatment; format: in vivo
Protocol: Forty BALB/c Nude mice (5-6 weeks old, Charles River Laboratories) were intraperitoneally injected with 1×10^6 UPSC cells. After 1 week, drug treatments were started with PBS control, blank PLA-HPGALD control and 3 EB formulations. […] Treatments were administrated intraperitoneally with a dose of EB (0.5 mg/kg) every week for 5 weeks. The body weights of the mice were measured twice a week. Animals were euthanized when the body weight loss exceeded 20%, or when other signals of sickness, such as breathing problems, failure to eat and drink, lethargy or abnormal posture, were observed.
BALB/c Nude mice (5-6 weeks old, Charles River Laboratories) were intraperitoneally injected with 1×10^6 USC cells. After 1 week, drug treatments were started with 8 animals in each group. […] In this experiment, treatments were administrated intraperitoneally with a 2.5 mg/kg dose of EB every week for 3 weeks. In another experiment, five groups were compared as described in Example 11.
The body weights of the mice were measured as described in Example 11.

[4] = Retention profile of EB in peritoneal cavity after IP injection (HPLC); settings: 6 hr after a single IP dose, EB 2.5 mg/kg
Protocol: C57BL/6 mice (5-6 weeks old, Charles River Laboratories) were divided into three groups with 9 mice per group and one group with 3 mice. The group with 3 mice was used as a vehicle control. […] At each time point (6 hr, 1 d and 3 d), 3 mice from each group and one mouse from the 3-animal vehicle control group were euthanized and the peritoneal cavities washed with 5 mL acetonitrile for 3 times. The acetonitrile samples were centrifuged and the supernatant was collected and processed for HPLC analysis. EB concentration was determined with HPLC with C18 column with methanol/water (7:3) with UV detector set at 240 nm absorbance.

| SMILES | time to complete clearance from the IP cavity [1] | in vitro cytotoxicity against UPSC cells [2] | animals surviving to 110 days ([3]; EB 0.5 mg/kg) | body weight ([3]; EB 2.5 mg/kg) | death due to toxicity ([3]; EB 2.5 mg/kg) | survival compared with PBS ([3]; EB 2.5 mg/kg IP weekly for 3 weeks) | toxicity (weight loss, diarrhea, bowel dilation) ([3]; FIG. 18B) | survival compared with PBS ([3]; five-group experiment, EB 0.5 mg/kg IP weekly for 5 weeks) | EB retained in the peritoneal cavity [4] |
| --- | --- | --- | --- | --- | --- | --- | --- | --- | --- |
| CCCN1C(=CC=C2CCCC(C=CC3=[N+](CCC)c4ccccc4C3(C)C)=C2Cl)C(C)(C)c2ccccc21.[I-] [Free dye, IR-780 iodide] | less than 4 hours |  |  |  |  |  |  |  |  |
| C/C(=C\c1csc(C)n1)[C@@H]1C[C@@H]2O[C@]2(C)CCC[C@H](C)[C@H](O)[C@@H](C)C(=O)C(C)(C)[C@@H](O)CC(=O)O1 [free EB, epothilone B] |  | highest toxicity | approximately 10% | weight loss | early death due to EB toxicity | only mice treated with the lower dosage showed significance | significant toxicity | showed significance | No EB was detected |
